In patent US12049450B2, “Pyridyloxy-carboxylate derivative and preparation method therefor, herbicidal composition, and use” (Qingdao Kingagroot Chemical Compound Co., Ltd., priority 2018, dated 2024):

Columns and labels:
Test in all cases: Post-emergence test experiment (greenhouse pot, spray at 2-3 leaf stage)
Format in all cases: in vivo
Settings in all cases: 1000 g/ha; post-emergence spray at 2-3 leaf stage; assessed after 3 weeks; fresh weight inhibition rate
Echinochloa crusgalli = system: Echinochloa crusgalli
Source text: (§1) The activity level standard of harmful plants destruction (i. e. growth inhibition rate) is as follows: • Level 5: the growth inhibition rate is greater than 85%; • Level 4: the growth inhibition rate is equal to or greater than 60% and less than 85%; • Level 3: the growth inhibition rate is equal to or greater than 40% and less than 60%; • Level 2: the growth inhibition rate is equal to or greater than 20% and less than 40%; • Level 1: the growth inhibition rate is equal to or greater than 5% and less than 20%; • Level 0: the growth inhibition rate is less than 5%;
(§2) The above described growth inhibition rate is fresh weight inhibition rate.
(§3) Post-emergence test experiment: Monocotyledonous and dicotyledonous weed seeds and main crop seeds (i. e. wheat, corn, rice, soybean, cotton, oilseed, millet and sorghum.) were put into a plastic pot loaded with soil. Then covered with 0.5-2 cm soil, the seeds were allowed to grow in good greenhouse environment. The test plants were treated at 2-3 leaf stage 2 weeks after sowing. The test compounds of the invention were dissolved with acetone respectively, then added with tween-80, and using 1.5 liters per hectare of an emulsible concentrate of methyl oleate as a synergist, and diluted by certain amount of water to certain concentration. The solution was sprayed to the plants with a sprayer. Then the plants were cultured for 3 weeks in the greenhouse, and the experiment result of weed controlling effect after 3 weeks was listed in tables 3-4.

Galium spurium = system: Galium spurium
Source text: as §1, §2, §3

Monochoria vaginalis = system: Monochoria vaginalis
Source text: as §1, §2, §3

Digitaria sanguinalis = system: Digitaria sanguinalis
Source text: as §1, §2, §3

Abutilon theophrasti = system: Abutilon theophrasti
Source text: as §1, §2, §3

Compound	Activity level (growth inhibition rate) Echinochloa crusgalli (Echinochloa crusgalli)	Activity level (growth inhibition rate) Galium spurium (Galium spurium)	Activity level (growth inhibition rate) Monochoria Vaginalis (Monochoria vaginalis)	Activity level (growth inhibition rate) Digitaria sanguinalis (Digitaria sanguinalis)	Activity level (growth inhibition rate) Abutilon theophrasti (Abutilon theophrasti)
CCOC(=O)Nc1cccc(CSC(=O)C(C)Oc2nc(F)c(Cl)c(N)c2Cl)c1 (racemic) [Compound 109]	5 (Level 5: the growth inhibition rate is greater than 85%)	5 (Level 5: the growth inhibition rate is greater than 85%)	5 (Level 5: the growth inhibition rate is greater than 85%)	5 (Level 5: the growth inhibition rate is greater than 85%)	5 (Level 5: the growth inhibition rate is greater than 85%)
Nc1c(Cl)c(F)nc(OC(C(=O)OCc2ccccc2)c2ccccc2)c1Cl (centres unmarked) [Compound 60]	–	5 (Level 5: the growth inhibition rate is greater than 85%)	5 (Level 5: the growth inhibition rate is greater than 85%)	–	5 (Level 5: the growth inhibition rate is greater than 85%)
Nc1c(Cl)c(F)nc(OC(C(=O)SCc2ccccc2)c2ccc(C(F)(F)F)cc2)c1Cl (centres unmarked) [Compound 61]	–	5 (Level 5: the growth inhibition rate is greater than 85%)	5 (Level 5: the growth inhibition rate is greater than 85%)	–	5 (Level 5: the growth inhibition rate is greater than 85%)
Nc1c(Cl)c(F)nc(OC(C(=O)OCc2ccccc2)c2cccc(Cl)c2)c1Cl (centres unmarked) [Compound 62]	–	5 (Level 5: the growth inhibition rate is greater than 85%)	5 (Level 5: the growth inhibition rate is greater than 85%)	–	5 (Level 5: the growth inhibition rate is greater than 85%)
COc1ccc(C(Oc2nc(F)c(Cl)c(N)c2Cl)C(=O)OCc2ccccc2)c(C)c1 (centres unmarked) [Compound 63]	–	5 (Level 5: the growth inhibition rate is greater than 85%)	5 (Level 5: the growth inhibition rate is greater than 85%)	–	5 (Level 5: the growth inhibition rate is greater than 85%)
Nc1c(Cl)c(F)nc(OC(C(=O)OCc2ccccc2)c2cccnc2)c1Cl (centres unmarked) [Compound 64]	–	5 (Level 5: the growth inhibition rate is greater than 85%)	5 (Level 5: the growth inhibition rate is greater than 85%)	–	5 (Level 5: the growth inhibition rate is greater than 85%)
Nc1c(Cl)c(F)nc(OC(C(=O)SCc2ccccc2)c2cncnc2)c1Cl (centres unmarked) [Compound 65]	–	5 (Level 5: the growth inhibition rate is greater than 85%)	5 (Level 5: the growth inhibition rate is greater than 85%)	–	5 (Level 5: the growth inhibition rate is greater than 85%)
Nc1c(Cl)c(F)nc(OC(C(=O)OCc2ccccc2)c2ccc3ccccc3c2)c1Cl (centres unmarked) [Compound 66]	–	5 (Level 5: the growth inhibition rate is greater than 85%)	5 (Level 5: the growth inhibition rate is greater than 85%)	–	5 (Level 5: the growth inhibition rate is greater than 85%)
